In brackets after ≈: the same amount, converted by molar mass.
Assays:
[1] = system: E. coli ATCC 25922 (AECO001); test: MIC assay, CLSI broth microdilution, AECO001; type: cell-based; conditions: Escherichia coli; AECO001 is ATCC25922; Mueller Hinton Broth, 35 C, 20 hours
Description: (§1) Minimum inhibitory concentrations (MIC) were determined by reference Clinical and Laboratory Standards Institute (CLSI) broth microdilution methods per M7-A7 [2006]. Quality control ranges utilizing E. coli ATCC 25922, P. aeruginosa ATCC 27853 and S. aureus ATCC 29213, and interpretive criteria for comparator agents were as published in CLSI M100-S17 [2007]. Briefly, serial two-fold dilutions of the test compounds were prepared at 2× concentration in Mueller Hinton Broth. The compound dilutions were mixed in 96-well assay plates in a 1:1 ratio with bacterial inoculum. The inoculum was prepared by suspension of a colony from an agar plate that was prepared the previous day. Bacteria were suspended in sterile saline and added to each assay plate to obtain a final concentration of 5×10^5 CFU/mL. The plates were incubated at 35 C. for 20 hours in ambient air.

[2] = system: P. aeruginosa ATCC 27853 (APAE001); test: MIC assay, CLSI broth microdilution, APAE001; type: cell-based; conditions: Pseudomonas aeruginosa; APAE001 is ATCC27853; Mueller Hinton Broth, 35 C, 20 hours
Description: as §1

- MIC [1]: ≤ 1 µg/mL
- MIC [2]: 1 to 16 µg/mL (≈ 1.38 to 22 µM)
SMILES: NCC[C@H](O)C(=O)N[C@@H]1C[C@H](N)[C@@H](O[C@H]2O[C@H](CNCCO)C=C[C@H]2N)[C@H](O[C@@H]2O[C@H](CO)[C@@H](O[C@H]3O[C@@H](CN)[C@@H](O)[C@H](O)[C@H]3N)[C@H]2O)[C@H]1O [1/20]

Reference: patent US8367625B2, “Antibacterial aminoglycoside analogs” (Achaogen, Inc., priority 2008, dated 2013)
